Source: US9714265B2, “Mutagenic nucleoside analogs and uses thereof” (Massachusetts Institute of Technology, priority 2015, dated 2017)

Legend:
[1] = test system: M13 single-stranded genomes, containing one KP1212 base at a specific site; experiment: primer extension at various pHs on M13 genome containing KP1212, PCR and REAP assay (mutagenesis); assay type: biochemical
Procedure: The method of evaluating the mutagenicity of a compound allows for analyzing the product of a primer extension reaction (by itself a trivial reaction, even if run at different pHs) with the REAP method (this method was published in Delaney, J. C. & Essigmann, J. M., Methods Enzymol. 408, 1-15 (2006)). The methods involve a custom primer, of the form 5′-B-A-3′ and the following protocol. The A sequence is the actual primer for the extension reaction, and by itself has a low (about 37° C.) melting temperature. […] Its melting temperature is high, at about 70° C. The template of the primer extension reaction is an M13 genome containing at a specific site a modified base (or nucleoside analog). After the primer extension reaction, a PCR reaction is run using two primers; primer 1 is the forward primer used in the REAP method (or a primer annealing on the M13 genome upstream of the lesion site); primer 2 is exactly the sequence B. This method guarantees that only the primer extension product will be PCR amplified, and amplification will not depend on the yield of the primer extension reaction. Therefore, this method allows to detect and analyze mutagenic consequences (including rare events) of nucleoside analogs in a variety of conditions, where the type of polymerase, pH, ionic strength, salt concentration, and inhibitors can be varied over a large range of possibilities.
The M13 single-stranded genomes, containing one KP1212 base at a specific site were constructed and purified as previously reported (Li, Fedeles, Singh, Peng et al, 2014, Tautomerism provides a molecular explanation for the mutagenic properties of the anti-HIV nucleoside 5-aza-5,6-dihydro-2′-deoxycytidine, Proc. Natl. Acad. Sci. U.S.A. 111, E3252-3259). […]
The PCR products were subsequently purified and analyzed with the REAP assay as previously described (Li, Fedeles, Singh, Peng et al, 2014, Tautomerism provides a molecular explanation for the mutagenic properties of the anti-HIV nucleoside 5-aza-5,6-dihydro-2′-deoxycytidine. Proc. Natl. Acad. Sci. U.S.A. 111, E3252-3259). […]

[2] = test system: single-stranded vector containing a single KP1212; experiment: in vitro and in vivo replication of a single-stranded vector containing a single KP1212
Source text: Mutagenic nucleoside analogs may act through lethal mutagenesis. Lethal mutagenesis is a strategy whereby the innate immune system or mutagenic pool nucleotides increase the error rate of viral replication above the error catastrophe limit. Lethal mutagenesis can also increase the mutation rate of the DNA and/or RNA of cancer cells (e.g., cancer cells with a mutator phenotype) to over the error catastrophe limit and thus show genotoxicity and/or mitochondrial toxicity against the cancer cells. Lethal mutagenesis is proposed as a mechanism for several anti-viral compounds, including Ribavirin, which is useful for treating RS virus infection (RSV) and KP1212, a dihydro base which causes A to G and G to A mutations in HIV. […] The mutagenic properties of KP1212 were determined empirically by in vitro and in vivo replication of a single-stranded vector containing a single KP1212. […] A model is proposed that correlates the mutagenicity of KP1212 with its tautomeric distribution in solution. When incorporated into HIV DNA by RT, KP1212 allows DNA synthesis to continue. However, the modified base of KP1212 is able to tautomerize and base-pair alternately with guanine and adenine. […] Variable temperature (VT) nuclear magnetic resonance (NMR) techniques have allowed the identification of compounds capable of multiple tautomerism.

[3] = test system: HIV; conditions: Phase I and II; active form of the pro-drug KP1461; cited from earlier work
[4] = pH-dependent 1D FTIR / 2D IR spectroscopy of KP1212 in aqueous solutions (pKa); assay type: physicochemical; conditions: aqueous (D2O) solutions, pH* varied from 1.6 to 13.9; 1D and/or 2D IR spectroscopy, 25° C.
Procedure: FIGS. 1A to 1E. FIG. 1A: pH-dependent (Fourier transform infrared) FTIR spectra of KP1212 from pH* 1.6 (red or thin solid line) to 13.9 (blue or thick solid line) at 25° C. FIG. 1B: populations of protonated, neutral, and deprotonated KP1212 as a function of pH* obtained from the first three components of singular value decomposition (SVD) analysis. The solid lines show fits of the Henderson-Hasselbalch equation with pKa1 and pKa2. FIGS. 1C to 1E: SVD reconstructed IR spectra representative for the protonated (FIG. 1C), neutral (FIG. 1D), and deprotonated (FIG. 1E) KP1212. The grey curves, labeled A, in FIG. 1C and FIG. 1D are the experimental FTIR spectra of 1-(1′,4′-cyclohexadienyl)-2-methylaminopropane (CMP) at pH* 1.6 and 7.4, respectively. The pH* is the pH measured in D2O, as measured with a pH meter. The FTIR experiments were run in D2O.
An in vitro assay has been developed that allowed the measurement of the mutation type and rate of KP1212 at different pH values, and the mutagenic properties of KP1212 have been evaluated at pH 6-8. […] By simply changing the pH of a composition (e.g., a bodily fluid or aqueous solution) containing KP1212 to 5.9, KP1212 achieves its optimal mutagenicity of about 50%.
For both 1D FTIR and 2D IR experiments, the H/D exchanged KP1212 was dissolved at a concentration of 20 mg/ml (88 mM) in 0.5 M phosphate buffer pD (pH reading in D2O) 7.9. […]

SMILES: NC1=NC(=O)N([C@H]2C[C@H](O)[C@@H](CO)O2)CN1 [KP1212, 5-aza-5,6-dihydro-2′-deoxycytidine]
- mutagenesis ([1]; at pH 5.9): about 50%
- mutagenesis ([1]; at pH 8): about 10%
- C-to-T mutations in dependence on pH ([1]; pH 5.5-8.5): more C-to-T mutations as the pH decreases
- mutagenicity [2]: 10%
- C-to-T mutations ([2]; in vivo, when present in a template strand): about 10%
- paired with adenine, share of the time ([2]; under physiological conditions): about 10%
- paired with guanine, share of the time ([2]; under physiological conditions): approximately 90%
- safety in clinical trials [3]: safe
- pKa [4]: ~7
